From patent publication US8580918B2, “Peptidic GLP-2 agonists” (Ferring B.V., priority 2009, dated 2013)
Where a SMILES comes first, the peptide text is derived from it. [ ]: non-standard residue; d: D form. The star is where a group is joined. 1Nal = N[C@@H](Cc1cccc2ccccc12)C(=O)O; Nle = CCCC[C@H](N)C(=O)O; NHIsopentyl = CC(C)CCN*

assay: Pharmacokinetics in rats after intravenous bolus injection (systemic clearance); format: in vivo; conditions: rat, plasma, 0.2 mg FB/kg, adult male Sprague-Dawley rats, i.v. bolus, dose 0.20 mg FB/kg, read-out: CL (ml/kg/min) Average
Protocol: Pharmacokinetic (PK) parameters of illustrative agonists of the GLP-2 receptor were determined in adult male Sprague-Dawley rats post intravenous bolus injection of compounds at doses of 0.1-1.0 mg/kg. Three or four doubly cannulated animals per compound were dosed via jugular vein, blood samples were collected at several intervals via carotid artery, and plasma samples were prepared from whole blood using K2EDTA as anticoagulant. Subsequent bioanalysis of samples included compound extraction and plasma concentration determination using standard LC/MS/MS methods. Analyte concentration was calculated from internal standard normalized peak area and calibration curves.
For calculation of PK parameters the compound concentration-time curves were analyzed with the noncompartmental data analysis software package PK Solutions 2.0™ (Summit Research Services, Montrose Colo.). The systemic clearance per kg body weight (CL) was calculated as the dose per kg body weight divided by the AUC extrapolated to infinity based on trapezoid calculation (AUC∞). Values reported are the arithmetic mean and standard deviation from the number of animals used for each compound as indicated on Table 3.

| SMILES | clearance [mL/kg/min] |
| --- | --- |
| CCCC[C@H](NC(=O)[C@H](CCC(=O)O)NC(=O)[C@H](CC(=O)O)NC(=O)[C@H](CO)NC(=O)[C@H](Cc1ccccc1)NC(=O)[C@H](CO)NC(=O)[C@@H](C)NC(=O)[C@H](CC(=O)O)NC(=O)CNC(=O)[C@@H](N)Cc1cnc[nH]1)C(=O)N[C@@H](CC(N)=O)C(=O)N[C@H](C(=O)N[C@H](C(=O)N[C@@H](CC(C)C)C(=O)N[C@@H](CC(=O)O)C(=O)N[C@@H](CC(N)=O)C(=O)N[C@@H](CC(C)C)C(=O)N[C@@H](C)C(=O)N[C@@H](C)C(=O)N[C@@H](CCCNC(=N)N)C(=O)N[C@@H](CC(=O)O)C(=O)N[C@@H](Cc1ccccc1)C(=O)N[C@H](C(=O)N[C@@H](CC(N)=O)C(=O)N[C@@H](Cc1c[nH]c2ccccc12)C(=O)N[C@@H](CC(C)C)C(=O)N[C@H](C(=O)N[C@@H](CCC(N)=O)C(=O)N[C@H](C(=O)N[C@@H](CCCCN)C(N)=O)[C@@H](C)O)[C@@H](C)CC)[C@@H](C)CC)[C@@H](C)CC)[C@@H](C)O [Compound 1, [Gly2,D-Ala4,Nle10] hGLP-2 (1-30)-NH2] (H-HGD[dA]SFSDE[Nle]NTILDNLAARDFINWLIQTK-NH2) | 7.1 |
| CCCC[C@H](NC(=O)[C@H](CCC(=O)O)NC(=O)[C@H](CC(=O)O)NC(=O)[C@H](CO)NC(=O)[C@H](Cc1ccccc1)NC(=O)[C@H](CO)NC(=O)CNC(=O)[C@H](CC(=O)O)NC(=O)CNC(=O)[C@@H](N)Cc1c[nH]cn1)C(=O)N[C@@H](CC(N)=O)C(=O)N[C@H](C(=O)N[C@H](C(=O)N[C@@H](CC(C)C)C(=O)N[C@@H](CC(=O)O)C(=O)N[C@@H](CC(N)=O)C(=O)N[C@@H](CC(C)C)C(=O)N[C@@H](C)C(=O)N[C@@H](C)C(=O)N[C@@H](CCCNC(=N)N)C(=O)N[C@@H](CC(=O)O)C(=O)N[C@@H](Cc1ccccc1)C(=O)N[C@H](C(=O)N[C@@H](CC(N)=O)C(=O)N[C@@H](Cc1c[nH]c2ccccc12)C(=O)N[C@@H](CC(C)C)C(=O)N[C@H](C(=O)N[C@@H](CCC(N)=O)C(=O)N[C@H](C(=O)N[C@@H](CCCCN)C(=O)NCCC(C)C)[C@@H](C)O)[C@@H](C)CC)[C@@H](C)CC)[C@@H](C)CC)[C@@H](C)O [Compound 5, [Gly2,Nle10] hGLP-2 (1-30)-NH-i-Am] (H-HGDGSFSDE[Nle]NTILDNLAARDFINWLIQTK-NHIsopentyl) | 1.2 |
| CCCC[C@H](NC(=O)[C@H](CCC(=O)O)NC(=O)[C@H](CC(=O)O)NC(=O)[C@H](CO)NC(=O)[C@H](Cc1ccccc1)NC(=O)[C@H](CO)NC(=O)CNC(=O)[C@H](CC(=O)O)NC(=O)CNC(=O)[C@@H](N)Cc1c[nH]cn1)C(=O)N[C@@H](CC(N)=O)C(=O)N[C@H](C(=O)N[C@H](C(=O)N[C@@H](CC(C)C)C(=O)N[C@@H](CC(=O)O)C(=O)N[C@@H](CC(N)=O)C(=O)N[C@@H](CC(C)C)C(=O)N[C@@H](C)C(=O)N[C@@H](C)C(=O)N[C@@H](CCCNC(=N)N)C(=O)N[C@@H](CC(=O)O)C(=O)N[C@@H](Cc1ccccc1)C(=O)N[C@H](C(=O)N[C@@H](CC(N)=O)C(=O)N[C@@H](Cc1c[nH]c2ccccc12)C(=O)N[C@@H](CC(C)C)C(=O)N[C@H](C(=O)N[C@@H](CCC(N)=O)C(=O)N[C@H](C(=O)N[C@@H](CCCCN)C(=O)NCC)[C@@H](C)O)[C@@H](C)CC)[C@@H](C)CC)[C@@H](C)CC)[C@@H](C)O [Compound 6, [Gly2,Nle10] hGLP-2 (1-30)-NH—Et] (H-HGDGSFSDE[Nle]NTILDNLAARDFINWLIQTK-NHEt) | 6.3 |
| CCCC[C@H](NC(=O)[C@H](CCC(=O)O)NC(=O)[C@H](CC(=O)O)NC(=O)[C@H](CO)NC(=O)[C@H](Cc1ccccc1)NC(=O)[C@H](CO)NC(=O)CNC(=O)[C@H](CC(=O)O)NC(=O)CNC(=O)[C@@H](N)Cc1c[nH]cn1)C(=O)N[C@@H](CC(N)=O)C(=O)N[C@H](C(=O)N[C@H](C(=O)N[C@@H](CC(C)C)C(=O)N[C@@H](CC(=O)O)C(=O)N[C@@H](CC(C)C)C(=O)N[C@@H](CC(C)C)C(=O)N[C@@H](C)C(=O)N[C@@H](C)C(=O)N[C@@H](CCCNC(=N)N)C(=O)N[C@@H](CC(=O)O)C(=O)N[C@@H](Cc1ccccc1)C(=O)N[C@H](C(=O)N[C@@H](CC(N)=O)C(=O)N[C@@H](Cc1c[nH]c2ccccc12)C(=O)N[C@@H](CC(C)C)C(=O)N[C@H](C(=O)N[C@@H](CCC(N)=O)C(=O)N[C@H](C(=O)N[C@@H](CCCCN)C(N)=O)[C@@H](C)O)[C@@H](C)CC)[C@@H](C)CC)[C@@H](C)CC)[C@@H](C)O [Compound 11, [Gly2,Nle10,Leu16] hGLP-2 (1-30)-NH2] (H-HGDGSFSDE[Nle]NTILDLLAARDFINWLIQTK-NH2) | 0.84 |
| CCCC[C@H](NC(=O)[C@H](CCC(=O)O)NC(=O)[C@H](CC(=O)O)NC(=O)[C@H](CO)NC(=O)[C@H](Cc1ccccc1)NC(=O)[C@H](CO)NC(=O)CNC(=O)[C@H](CC(=O)O)NC(=O)CNC(=O)[C@@H](N)Cc1cnc[nH]1)C(=O)N[C@H](Cc1ccccc1)C(=O)N[C@H](C(=O)N[C@H](C(=O)N[C@@H](CC(C)C)C(=O)N[C@@H](CC(=O)O)C(=O)N[C@@H](CC(N)=O)C(=O)N[C@@H](CC(C)C)C(=O)N[C@@H](C)C(=O)N[C@@H](C)C(=O)N[C@@H](CCCNC(=N)N)C(=O)N[C@@H](CC(=O)O)C(=O)N[C@@H](Cc1ccccc1)C(=O)N[C@H](C(=O)N[C@@H](CC(N)=O)C(=O)N[C@@H](Cc1c[nH]c2ccccc12)C(=O)N[C@@H](CC(C)C)C(=O)N[C@H](C(=O)N[C@@H](CCC(N)=O)C(=O)N[C@H](C(=O)N[C@@H](CCCCN)C(N)=O)[C@@H](C)O)[C@@H](C)CC)[C@@H](C)CC)[C@@H](C)CC)[C@@H](C)O [Compound 13, [Gly2,Nle10,D-Phe11] hGLP-2 (1-30)-NH2] (H-HGDGSFSDE[Nle][dF]TILDNLAARDFINWLIQTK-NH2) | 1.2 |
| CCCC[C@H](NC(=O)[C@H](CCC(=O)O)NC(=O)[C@H](CC(=O)O)NC(=O)[C@H](CO)NC(=O)[C@H](Cc1ccccc1)NC(=O)[C@H](CO)NC(=O)CNC(=O)[C@H](CC(=O)O)NC(=O)CNC(=O)[C@@H](N)Cc1cnc[nH]1)C(=O)N[C@@H](CC(N)=O)C(=O)N[C@H](C(=O)N[C@H](C(=O)N[C@@H](CC(C)C)C(=O)N[C@@H](CC(=O)O)C(=O)N[C@@H](Cc1cccc2ccccc12)C(=O)N[C@@H](CC(C)C)C(=O)N[C@@H](C)C(=O)N[C@@H](C)C(=O)N[C@@H](CCCNC(=N)N)C(=O)N[C@@H](CC(=O)O)C(=O)N[C@@H](Cc1ccccc1)C(=O)N[C@H](C(=O)N[C@@H](CC(N)=O)C(=O)N[C@@H](Cc1c[nH]c2ccccc12)C(=O)N[C@@H](CC(C)C)C(=O)N[C@H](C(=O)N[C@@H](CCC(N)=O)C(=O)N[C@H](C(=O)N[C@@H](CCCCN)C(N)=O)[C@@H](C)O)[C@@H](C)CC)[C@@H](C)CC)[C@@H](C)CC)[C@@H](C)O [Compound 17, [Gly2,Nle10,1-Nal16] hGLP-2 (1-30)-NH2] (H-HGDGSFSDE[Nle]NTILD[1Nal]LAARDFINWLIQTK-NH2) | 0.43 |
| CCCC[C@H](NC(=O)[C@H](CCC(=O)O)NC(=O)[C@H](CC(=O)O)NC(=O)[C@H](CO)NC(=O)[C@H](Cc1ccccc1)NC(=O)[C@H](CO)NC(=O)CNC(=O)[C@H](CC(=O)O)NC(=O)CNC(=O)[C@@H](N)Cc1c[nH]cn1)C(=O)N[C@@H](CC(N)=O)C(=O)N[C@H](C(=O)N[C@H](C(=O)N[C@@H](CC(C)C)C(=O)N[C@@H](CC(=O)O)C(=O)N[C@@H](Cc1ccc(O)cc1)C(=O)N[C@@H](CC(C)C)C(=O)N[C@@H](C)C(=O)N[C@@H](C)C(=O)N[C@@H](CCCNC(=N)N)C(=O)N[C@@H](CC(=O)O)C(=O)N[C@@H](Cc1ccccc1)C(=O)N[C@H](C(=O)N[C@@H](CC(N)=O)C(=O)N[C@@H](Cc1c[nH]c2ccccc12)C(=O)N[C@@H](CC(C)C)C(=O)N[C@H](C(=O)N[C@@H](CCC(N)=O)C(=O)N[C@H](C(=O)N[C@@H](CCCCN)C(N)=O)[C@@H](C)O)[C@@H](C)CC)[C@@H](C)CC)[C@@H](C)CC)[C@@H](C)O [Compound 18, [Gly2,Nle10,Tyr16] hGLP-2 (1-30)-NH2] (H-HGDGSFSDE[Nle]NTILDYLAARDFINWLIQTK-NH2) | 1.2 |

same assay, conditions: rat, plasma, adult male Sprague-Dawley rats, i.v. bolus, dose 0.18 mg FB/kg, read-out: CL (ml/kg/min) Average

| SMILES | clearance [mL/kg/min] |
| --- | --- |
| CCCC[C@H](NC(=O)[C@H](CCC(=O)O)NC(=O)[C@H](CC(=O)O)NC(=O)[C@H](CO)NC(=O)[C@H](Cc1ccccc1)NC(=O)[C@H](CO)NC(=O)CNC(=O)[C@H](CC(=O)O)NC(=O)CNC(=O)[C@@H](N)Cc1c[nH]cn1)C(=O)N[C@@H](CC(N)=O)C(=O)N[C@H](C(=O)N[C@H](C(=O)N[C@@H](CC(C)C)C(=O)N[C@@H](CC(=O)O)C(=O)N[C@@H](CC(N)=O)C(=O)N[C@@H](CC(C)C)C(=O)N[C@@H](C)C(=O)N[C@@H](C)C(=O)N[C@@H](CCCNC(=N)N)C(=O)N[C@@H](CC(=O)O)C(=O)N[C@@H](Cc1ccccc1)C(=O)N[C@H](C(=O)N[C@@H](CC(N)=O)C(=O)N[C@@H](Cc1c[nH]c2ccccc12)C(=O)N[C@@H](CC(C)C)C(=O)N[C@H](C(=O)N[C@@H](CCCNC(=N)N)C(=O)N[C@H](C(=O)N[C@@H](CCCCN)C(=O)NCCC(C)C)[C@@H](C)O)[C@@H](C)CC)[C@@H](C)CC)[C@@H](C)CC)[C@@H](C)O [Compound 10, [Gly2,Nle10,Arg28] hGLP-2 (1-30)-NH-i-Am] (H-HGDGSFSDE[Nle]NTILDNLAARDFINWLIRTK-NHIsopentyl) | 1.5 |
